Earlier results on 1 compound are cited in patent US20140243428A1, “SELF HEALING HYDROGELS” (The Regents of the University of California, priority 2013, published 2014).

Molecules are shown by their SMILES.

In general, pKa refers to the pH at which an ionisable group is half protonated. `NCCCCCC(=O)O` [6-aminocaproic acid]: the pKa was 4.4.
